Data taken from US20080175831A1 (priority 2006, published 2008).

Assays:
[1] = system: Kv1.1 mutant mice; assay: Neural damage in the hippocampus assessed with FluoroJade B staining after systemic treatment; format: in vivo, mouse; details: blood flow suppressor 7-nitroindazole 50 mg/kg IP; blood flow enhancer acetazolamide 30 mg/kg IP
Description: Ictal hyperemia and/or ischemia leads to neuronal damage. The contribution of ictal blood flow to neural damage (assessed with Fluorojade B staining) is determined by measuring the neural damage in the hippocampus, as a function of systemic treatment with a blood flow suppressor (e.g., 7-nitroindazole; 50 mg/kg IP) and a blood flow enhancer (e.g., acetazolamide; 30 mg/kg IP).
Ictal hyperemia and/or ischemia leads to neuronal damage. The contribution of ictal blood flow to neural damage is assessed with FluoroJade B staining to measure the neural damage in the hippocampus, as a function of systemic treatment with a blood flow suppressor (7-nitroindazole; 50 mg/kg IP) and enhancer (acetazolamide; 30 mg/kg IP).
Ten minutes before imaging blood flow, drugs will be administered by IP injection at a volume of 0.01 ml per g of body weight. […]
The staining solution is made with 0.01% stock solution of FluoroJade B (Histo-Chem. Inc., Jefferson Ark.) in distilled water (final dye concentration of 0.0004%). […] The tissue representing the hippocampus is then examined using epifluorescence microscopy with blue (450-490 nm) excitation light: the position of the imaging focus is localized by the red Di-I track from the cannula, and neuronal damage is assessed by FluoroJade B staining colored green. […]

[2] = system: Kv1.1 mutants; details: 30 mg/kg IP; cited from earlier work
[3] = system: seizures; details: in vivo; cited from earlier work
[4] = system: C3Heb/FeJ strain of Kv1.1 knockouts; assay: Status epilepticus induced with kainate, three-stage injection protocol; format: in vivo, mouse
Description: A three-stage injection protocol is employed to induce status epilepticus with kainate. Mice are given 10 mg/kg (in pH 7.4 saline) of kainate subcutaneously, after which they begin electroclinical seizure activity. An additional 5 mg/kg is administered 30 minutes after behavioral seizure initiation, followed by another 5 mg/kg dose sc after another 30 minutes. This protocol has previously provided a high survivability rate (greater than 90%) in the C3Heb/FeJ strain of Kv1.1 knockouts, and to moreover sustain the status for at least a 2-hour duration. Behavioral seizure scoring is conducted using a modified Racine scale, and cumulative seizure scores are generated for each animal (a seizure score is given every minute, with the highest numerical value based on the Racine scale; then the cumulative score is generated by adding all the individual scores for each minute of seizure activity).

[5] = kainate 10 mg/kg sc, then 5 mg/kg and 5 mg/kg at 30 minute intervals

| Structure (SMILES) | neural damage in the hippocampus (FluoroJade B staining) [1] | effect on blood flow [2] | effect on seizures [3] | duration of sustained status epilepticus [4, 5] | survivability rate [4, 5] | neural damage after kainate-induced status epilepticus (FIGS. 6A-6B) ([4]; mouse, FluoroJade B) |
| --- | --- | --- | --- | --- | --- | --- |
| O=[N+]([O-])c1cccc2cn[nH]c12 [7-nitroindazole] | less neural damage |  |  |  |  |  |
| CC(=O)Nc1nnc(S(N)(=O)=O)s1 [acetazolamide] | increased neural damage | increased blood flow | reduce seizures |  |  |  |
| C=C(C)[C@H]1CN[C@H](C(=O)O)[C@H]1CC(=O)O [kainate] |  |  |  | ≥ 2 h | greater than 90% | statistically significant effects of neural damage |
